From patent publication US20180010188A1, “METHOD FOR DETECTING NONSENSE-MEDIATED RNA DECAY” (The Regents of the University of California, priority 2016, published 2018)

Test system: Perk transcripts
Experiment: Perk transcript levels by RT-qPCR
Format: cell-based, mouse
Details: thapsigargin in control siRNA-pretreated cells
Experimental: Two independent siRNAs reduced the endogenous Perk transcripts to around 20% (FIG. 4A).
Neuro-2a (N2a) cells were maintained in N2a complete media consisting of L-glutamine-free Dulbecco's modified Eagle's medium (DMEM), 10% FBS and 1× GlutaMAX at 37° C. Thapsigargin (VWR, cat. no. 89161-410), ionomycin (Fisher Scientific, cat. no. AG-CN2-0416-M001) and ouabain octahydrate (Fisher Scientific, cat. no. 80055-364) were dissolved in DMSO and stored at −80° C. For the application of these chemicals, 750,000 cells were plated on 35 mm BioLite TC plates and incubated with 2 ml of N2a complete media overnight before treatment with the drugs at the indicated concentrations. The cells were collected at 5 hours post-treatment unless otherwise specified. The PERK inhibitor GSK2606414 (Thermo Fisher, cat. no. 501016108) was dissolved in DMSO and stored at −20° C. N2a cells were incubated with GSK2606414 for 1 hour before thapsigargin treatment. For L-glutamine deprivation, 750,000 N2a cells were plated overnight and switched to L-glutamine-free DMEM with 10% FBS. […]
Trizol (Life Technologies, cat. no. 15596-018) was directly added to the cells or mouse brain tissues to extract total RNA following the Trizol Reagent standard protocol. […] RNA concentrations were measured using a Nanodrop 2000c (Thermo Fisher). […] Relative expression (fold changes) was calculated using the ΔΔCt method. […]

## C/C=C(/C)C(=O)O[C@H]1C(C)=C2[C@H]([C@@H]1OC(=O)CCCCCCC)[C@@](C)(OC(C)=O)C[C@H](OC(=O)CCC)[C@@]1(O)[C@H]2OC(=O)[C@@]1(C)O [thapsigargin]
  Perk transcript levels: increased
